Experimental data taken from US8802597B2, “Herbicidal pyrimidines” (E I du Pont de Nemours and Company, priority 2003, dated 2014).

What was measured:
Assay type in all cases: in vivo
[1] = tested on: crabgrass (Digitaria sanguinalis); assay: Test B pre/postemergence
Method in brief: (§1)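 Scores reflect visual comparison with untreated controls, where 0 means no effect and 100 complete control. Plants stayed 13 to 15 days in the greenhouse after pre- or postemergence treatment with compounds carried in a non-phytotoxic solvent and surfactant.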

[2] = tested on: lambsquarters (Chenopodium album); assay: Test B pre/postemergence
Method in brief: as §1

[3] = tested on: velvetleaf (Abutilon theophrasti); assay: Test B pre/postemergence
Method in brief: as §1

[4] = tested on: pigweed (Amaranthus retroflexus); assay: Test B pre/postemergence
Method in brief: as §1

[5] = tested on: morningglory (Ipomoea coccinea); assay: Test B pre/postemergence
Method in brief: as §1

[6] = tested on: corn (Zea mays); assay: Test B pre/postemergence
Method in brief: as §1

[7] = tested on: Surinam grass (Brachiaria decumbens); assay: Test B pre/postemergence
Method in brief: as §1

[8] = tested on: giant foxtail (Setaria faberii); assay: Test B pre/postemergence
Method in brief: as §1

[9] = tested on: wheat (Triticum aestivum); assay: Test B pre/postemergence
Method in brief: as §1

[10] = tested on: cocklebur (Xanthium strumarium); assay: Test B pre/postemergence
Method in brief: as §1

[11] = tested on: barnyardgrass (Echinochloa crus-galli); assay: Test B pre/postemergence
Method in brief: as §1

[12] = tested on: duck salad (Heteranthera limosa); assay: Test B flooded paddy test; settings: Flood, scale 0 to 100
Method in brief: (§2)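 Rice, umbrella sedge, duck salad and barnyardgrass grown to 2-leaf stage under flooded paddy conditions and treated with formulated test chemicals. Kept in greenhouse 13–15 days, then visually rated against untreated controls on a 0–100 scale (0 no effect, 100 complete control).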

[13] = tested on: umbrella sedge (Cyperus difformis); assay: Test B flooded paddy test; settings: Flood, scale 0 to 100
Method in brief: as §2

[14] = tested on: rice (Oryza sativa); assay: Test B flooded paddy test; settings: Flood, scale 0 to 100
Method in brief: as §2

[15] = tested on: barnyardgrass (Echinochloa crus-galli); assay: Test B flooded paddy test; settings: Flood
Method in brief: as §2

[16] = tested on: wild oat (Avena fatua); assay: Test B postemergence; settings: for Oat, Wild plant response rating: scale 0 to 100 (0 no effect, 100 complete control)
Method in brief: as §1

[17] = tested on: blackgrass (Alopecurus myosuroides); assay: Test B postemergence; settings: for Blackgrass plant response rating: scale 0 to 100 (0 no effect, 100 complete control)
Method in brief: as §1

[18] = Postemergence, 62 g ai/ha, scale 0 to 100 (0 no effect, 100 complete control)
[19] = Postemergence, 125 g ai/ha, scale 0 to 100 (0 no effect, 100 complete control)
[20] = Preemergence, 62 g ai/ha, scale 0 to 100, 0 no effect, 100 complete control
[21] = Preemergence, 125 g ai/ha, scale 0 to 100 (0 no effect, 100 complete control)
[22] = Postemergence, 500 g ai/ha, scale 0 to 100
[23] = Preemergence, 500 g ai/ha, scale 0 to 100 (0 no effect, 100 complete control)

## COC(=O)c1nc(-c2ccc(I)cc2)nc(N)c1Br [Compound 128]
[1]; [18]
  Crabgrass plant response rating: 20
[1]; [19]
  Crabgrass plant response rating: 40
[1]; [20]
  Plant response rating, Crabgrass: 0
[1]; [21]
  Plant response rating, Crabgrass: 0
[2]; [18]
  Lambsquarters plant response rating: 90
[2]; [19]
  Lambsquarters plant response rating: 90
[2]; [20]
  Plant response rating, Lambsquarters: 10
[2]; [21]
  Plant response rating, Lambsquarters: 50
[3]; [18]
  Velvetleaf plant response rating: 50
[3]; [19]
  Velvetleaf plant response rating: 80
[3]; [20]
  Plant response rating, Velvetleaf: 0
[3]; [21]
  Plant response rating, Velvetleaf: 40
[4]; [18]
  Pigweed plant response rating: 90
[4]; [19]
  Pigweed plant response rating: 90
[4]; [20]
  Plant response rating, Pigweed: 10
[4]; [21]
  Plant response rating, Pigweed: 50
[5]; [18]
  Morningglory plant response rating: 40
[5]; [19]
  Morningglory plant response rating: 90
[5]; [20]
  Plant response rating, Morningglory: 0
[5]; [21]
  Plant response rating, Morningglory: 0
[6]; [18]
  Corn plant response rating: 10
[6]; [19]
  Corn plant response rating: 70
[6]; [20]
  Plant response rating, Corn: 0
[6]; [21]
  Plant response rating, Corn: 0
[7]; [18]
  Surinam Grass plant response rating: 30
[7]; [19]
  Surinam Grass plant response rating: 40
[7]; [20]
  Plant response rating, Surinam Grass: 0
[7]; [21]
  Plant response rating, Surinam Grass: 0
[8]; [18]
  Foxtail, Giant plant response rating: 30
[8]; [19]
  Foxtail, Giant plant response rating: 50
[8]; [20]
  Plant response rating, Foxtail, Giant: 0
[8]; [21]
  Plant response rating, Foxtail, Giant: 0
[9]; [18]
  Wheat plant response rating: 0
[9]; [19]
  Wheat plant response rating: 20
[9]; [20]
  Plant response rating, Wheat: 0
[9]; [21]
  Plant response rating, Wheat: 0
[10]; [18]
  Cocklebur plant response rating: 70
[10]; [19]
  Cocklebur plant response rating: 90
[10]; [20]
  Plant response rating, Cocklebur: 0
[10]; [21]
  Plant response rating, Cocklebur: 10
[11]; [18]
  Barnyardgrass plant response rating: 40
[11]; [19]
  Barnyardgrass plant response rating: 60
[11]; [20]
  Plant response rating, Barnyardgrass: 0
[11]; [21]
  Plant response rating, Barnyardgrass: 10
[12]; 125 g ai/ha
  Plant response rating, Ducksalad: 90
[12]; 500 g ai/ha
  Plant response rating, Ducksalad: 100
[13]; 125 g ai/ha
  Plant response rating, Sedge, Umbrella: 90
[13]; 500 g ai/ha
  Plant response rating, Sedge, Umbrella: 100
[14]; 125 g ai/ha
  Plant response rating, Rice: 0
[14]; 500 g ai/ha
  Plant response rating, Rice: 0
[15]; 125 g ai/ha, scale 0 to 100
  Plant response rating, Barnyardgrass: 0
[15]; 500 g ai/ha, scale 0 to 100
  Plant response rating, Barnyardgrass: 30
[16]; 62 g ai/ha
  Oat, Wild plant response rating: 0
[16]; 125 g ai/ha
  Oat, Wild plant response rating: 40
[17]; 62 g ai/ha
  Blackgrass plant response rating: 40
[17]; 125 g ai/ha
  Blackgrass plant response rating: 50

## COC(=O)c1nc(C2CC2)nc(N=CN(C)C)c1Br [Compound 19]
[1]; [19]
  Crabgrass plant response rating: 40
[1]; [22]
  Plant response rating, Crabgrass: 80
[1]; [21]
  Plant response rating, Crabgrass: 80
[1]; [23]
  Crabgrass plant response rating: 90
[2]; [19]
  Lambsquarters plant response rating: 100
[2]; [22]
  Plant response rating, Lambsquarters: 100
[2]; [21]
  Plant response rating, Lambsquarters: 100
[2]; [23]
  Lambsquarters plant response rating: 100
[3]; [19]
  Velvetleaf plant response rating: 70
[3]; [22]
  Plant response rating, Velvetleaf: 100
[3]; [21]
  Plant response rating, Velvetleaf: 90
[3]; [23]
  Velvetleaf plant response rating: 100
[4]; [19]
  Pigweed plant response rating: 90
[4]; [22]
  Plant response rating, Pigweed: 100
[4]; [21]
  Plant response rating, Pigweed: 90
[4]; [23]
  Pigweed plant response rating: 100
[5]; [19]
  Morningglory plant response rating: 100
[5]; [22]
  Plant response rating, Morningglory: 100
[5]; [21]
  Plant response rating, Morningglory: 90
[5]; [23]
  Morningglory plant response rating: 100
[6]; [19]
  Corn plant response rating: 30
[6]; [22]
  Plant response rating, Corn: 70
[6]; [21]
  Plant response rating, Corn: 70
[6]; [23]
  Corn plant response rating: 90
[7]; [19]
  Surinam Grass plant response rating: 40
[7]; [22]
  Plant response rating, Surinam Grass: 90
[7]; [21]
  Plant response rating, Surinam Grass: 60
[7]; [23]
  Surinam Grass plant response rating: 90
[8]; [19]
  Foxtail, Giant plant response rating: 20
[8]; [22]
  Plant response rating, Foxtail, Giant: 80
[8]; [21]
  Plant response rating, Foxtail, Giant: 20
[8]; [23]
  Foxtail, Giant plant response rating: 80
[9]; [19]
  Wheat plant response rating: 20
[9]; [22]
  Plant response rating, Wheat: 60
[9]; [21]
  Plant response rating, Wheat: 50
[9]; [23]
  Wheat plant response rating: 60
[10]; [19]
  Cocklebur plant response rating: 90
[10]; [22]
  Plant response rating, Cocklebur: 100
[10]; [21]
  Plant response rating, Cocklebur: 90
[10]; [23]
  Cocklebur plant response rating: 100
[11]; [19]
  Barnyardgrass plant response rating: 80
[11]; [22]
  Plant response rating, Barnyardgrass: 90
[11]; [21]
  Plant response rating, Barnyardgrass: 40
[11]; [23]
  Barnyardgrass plant response rating: 90
[12]; 1000 g ai/ha
  Plant response rating, Ducksalad: 80
[13]; 1000 g ai/ha
  Plant response rating, Sedge, Umbrella: 70
[14]; 1000 g ai/ha
  Plant response rating, Rice: 60
[15]; 1000 g ai/ha, scale 0 (no effect) to 100 (complete control)
  Plant response rating, Barnyardgrass: 80
[16]; 125 g ai/ha
  Oat, Wild plant response rating: 40
[16]; 500 g ai/ha, scale 0 to 100
  Plant response rating, Oat, Wild: 70
[17]; 125 g ai/ha
  Blackgrass plant response rating: 60
[17]; 500 g ai/ha, scale 0 to 100
  Plant response rating, Blackgrass: 80
